Laboratory results: publication PMC3544079 (MedChemComm, 2011)

Columns and labels:
Type in all cases: biochemical
E. coli DXP synthase = E. coli DXP synthase (Escherichia coli, UniProt P77488); assay: E. coli DXP synthase inhibition, spectrophotometric coupled assay; settings: with respect to pyruvate
[1] = molecular target: T1, S. cerevisiae transketolase (Saccharomyces cerevisiae, UniProt P23254); assay: Inhibition of S. cerevisiae transketolase
T1 sequence (P23254 1-680): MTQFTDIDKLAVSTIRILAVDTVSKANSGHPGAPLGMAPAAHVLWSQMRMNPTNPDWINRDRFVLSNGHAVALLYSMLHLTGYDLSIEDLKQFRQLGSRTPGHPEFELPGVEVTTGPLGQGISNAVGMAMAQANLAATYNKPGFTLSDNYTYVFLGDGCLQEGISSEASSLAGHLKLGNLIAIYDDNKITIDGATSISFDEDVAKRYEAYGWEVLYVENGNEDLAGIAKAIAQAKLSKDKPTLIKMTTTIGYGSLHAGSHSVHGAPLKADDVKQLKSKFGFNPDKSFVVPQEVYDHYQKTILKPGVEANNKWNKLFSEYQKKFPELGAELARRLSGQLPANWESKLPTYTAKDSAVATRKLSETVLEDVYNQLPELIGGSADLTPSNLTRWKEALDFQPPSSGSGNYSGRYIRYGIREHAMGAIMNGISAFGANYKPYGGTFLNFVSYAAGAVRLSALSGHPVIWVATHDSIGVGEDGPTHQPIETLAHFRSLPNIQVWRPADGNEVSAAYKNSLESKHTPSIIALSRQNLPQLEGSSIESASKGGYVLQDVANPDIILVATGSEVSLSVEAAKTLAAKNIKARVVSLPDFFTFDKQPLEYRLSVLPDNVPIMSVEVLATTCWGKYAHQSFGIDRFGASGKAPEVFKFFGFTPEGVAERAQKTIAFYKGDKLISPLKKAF

[2] = molecular target: T2, Porcine pyruvate dehydrogenase E1 subunit (Sus scrofa, UniProt P29804); assay: Inhibition of porcine pyruvate dehydrogenase E1 subunit; settings: pyruvate varied, 0-1.0 mM BAP
T2 sequence (P29804 30-390 limits assumed): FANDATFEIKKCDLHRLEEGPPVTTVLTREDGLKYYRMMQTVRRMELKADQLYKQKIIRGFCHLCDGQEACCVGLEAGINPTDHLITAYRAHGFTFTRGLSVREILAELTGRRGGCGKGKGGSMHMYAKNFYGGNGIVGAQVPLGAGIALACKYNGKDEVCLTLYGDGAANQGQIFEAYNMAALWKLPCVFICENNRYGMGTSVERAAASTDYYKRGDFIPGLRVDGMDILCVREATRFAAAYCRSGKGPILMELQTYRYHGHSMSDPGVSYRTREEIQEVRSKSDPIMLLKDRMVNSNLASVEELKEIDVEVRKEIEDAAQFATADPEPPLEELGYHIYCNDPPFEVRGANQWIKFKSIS

E. coli DXP synthase, sequence (P77488 whole entry): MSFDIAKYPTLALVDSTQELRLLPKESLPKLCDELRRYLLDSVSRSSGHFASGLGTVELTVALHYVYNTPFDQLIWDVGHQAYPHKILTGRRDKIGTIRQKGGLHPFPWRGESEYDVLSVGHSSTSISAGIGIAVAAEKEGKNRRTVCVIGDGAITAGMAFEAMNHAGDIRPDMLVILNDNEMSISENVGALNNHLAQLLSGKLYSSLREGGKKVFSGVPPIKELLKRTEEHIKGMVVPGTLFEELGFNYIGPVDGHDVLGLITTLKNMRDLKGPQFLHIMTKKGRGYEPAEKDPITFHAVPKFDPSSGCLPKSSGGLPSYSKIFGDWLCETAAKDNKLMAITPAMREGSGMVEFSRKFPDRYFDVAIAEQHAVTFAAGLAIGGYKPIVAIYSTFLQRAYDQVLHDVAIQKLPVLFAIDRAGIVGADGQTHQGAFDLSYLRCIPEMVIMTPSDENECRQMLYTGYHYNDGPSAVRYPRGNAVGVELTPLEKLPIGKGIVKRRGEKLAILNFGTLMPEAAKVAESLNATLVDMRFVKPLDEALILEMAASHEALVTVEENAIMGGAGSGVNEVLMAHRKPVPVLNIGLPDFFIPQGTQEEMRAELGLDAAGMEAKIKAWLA

**Q.** What does the source list for `COP(=O)([O-])C(C)=O.[Li+]` [Compound 1, Methylacetylphosphonate, reference compound]?
**A.** mode of inhibition (E. coli DXP synthase): competitive inhibitor against pyruvate; Ki [1]: > 1000 µM

**Q.** Which mode of inhibition (E. coli DXP synthase) does the source give for `CCOP(=O)([O-])C(C)=O.[Li+]` [Compound 2, Ethylacetylphosphonate] here?
**A.** Its mode of inhibition is “competitive mode of inhibition”.

**Q.** And the Ki [1]?
**A.** The Ki was > 1000 µM.

**Q.** With `CCCCOP(=O)([O-])C(C)=O.[Li+]` [Compound 3, butylacetylphosphonate] as the compound, how does the mode of inhibition (E. coli DXP synthase; listed as BAP) read?
**A.** The mode of inhibition was “competitive mode of inhibition”.

**Q.** And the mode of inhibition [2]?
**A.** Its mode of inhibition is “Competitive inhibition”.

**Q.** And the Ki [1]?
**A.** Its Ki is > 1000 µM.

**Q.** For `CCC(=O)P(=O)(O)OC` [Compound 4], which Ki [1] is on record?
**A.** The Ki was > 1000 µM.

**Q.** Which Ki [1] does the source give for `CCCC(=O)P(=O)(O)OC` [Compound 5] here?
**A.** Its Ki is > 1000 µM.

**Q.** `CCCCC(=O)P(=O)(O)OC` [Compound 6] was tested. Which Ki [1] did it give?
**A.** Its Ki is > 1000 µM.
